According to patent US4584376A, “1-heterocyclicthio-1-cyclopropanecarbonitriles as crop protectants” (Monsanto Company, priority 1982, dated 1986):
Where “and” joins values, the source holds several entries; their conditions need not be identical. Equal values may be shown once.

Columns and labels:
Type in all cases: in vivo
Sorghum = assay: Greenhouse safening test: % plant inhibition of sorghum by herbicide with and without safener; conditions: approx. 21 days; for % Plant Inhibition, Sorghum (herbicide plus safener): H-1 (alachlor) 2.2 kg/ha plus safener 9.0 kg/ha, left-hand figure
Method: (§1) Seed plantings and the sequential application of the herbicide and safening agents are accomplished in the following manner:
(§2) A fumigated silt loam to top soil is placed in a container and compacted to a depth of approximately 1.27 cm. from the top of said container. A predetermined number of seeds of each of the crop species to be tested are placed on top of the soil. A quantity of soil sufficient to substantially fill the container is measured and placed in a second container. A measured quantity of the herbicide dispersed or dissolved in a suitable carrier is applied to the soil in the second container. A measured quantity of the safening agent dispersed or dissolved in a suitable carrier is thereafter sprayed on the soil already treated with the […]. The soil containing the safening agent and/or herbicide is thoroughly mixed. This mixing is sometimes referred to as incorporation of the herbicide and safening agent into the soil. The mixing or incorporation provides a substantially uniform distribution of the safening agent and herbicide throughout the soil. The seeds are covered with the soil containing the safening agent and/or herbicide or with untreated soil, and the pots are leveled. The pots are then placed on a sand bench in a greenhouse and watered from below as needed. When the seeds are treated with safener, the application of the safener to the soil is omitted. The coated seeds are placed on top of the soil in the pot and the balance of the treatment procedure is the same. The plants are observed at the end of approximately 21 days and the results in terms of percent inhibition of growth are recorded.
(§3) For each test series, a pot is also prepared containing no herbicide and no safening agent as a control. For each treatment, the herbicidal activity is observed on pots treated with the same quantity of herbicide alone. The results are observed and recorded as percent inhibition of each plant species tested. The tank mixes of know herbicides, safeners or combinations thereof were prepared by dissolving the appropriate amount of active ingredient in acetone. In Table 2 the results of testing the compounds of the present invention have been set forth. The rates of herbicide application are given in kilograms per hectare. In each treatment the amount of safener employed was 9.0 kilograms per hectare. In the % Plant Inhibition section of Table 2 under the listed crop columns the data are the inhibitions for herbicide plus safener on the left side and for the herbicide alone on the right side. The known herbicides are identified as follows. Throughout the examples, the herbicides are individually identified by reference numbers H-1 and H-2.

Wheat = assay: Greenhouse safening test: % plant inhibition of wheat by herbicide with and without safener; conditions: approx. 21 days; for % Plant Inhibition, Wheat (herbicide plus safener): H-1 (alachlor) 2.2 kg/ha plus safener 9.0 kg/ha, left-hand figure
Method: as §1, §2, §3

Rice = assay: Greenhouse safening test: % plant inhibition of rice by herbicide with and without safener; conditions: approx. 21 days; for % Plant Inhibition, Rice (herbicide plus safener): left-hand figure; for % Plant Inhibition, Rice (herbicide alone): right-hand figure
Method: as §1, §2, §3

[1] = H-2 (butachlor) 4.5 kg/ha plus safener 9.0 kg/ha
[2] = H-1 (alachlor) 2.2 kg/ha alone, right-hand figure

Cn1c(SC2(C#N)CC2)nnc1C(F)(F)F [Compound 1, 1([4-methyl-5-(trifluoromethyl)4H.1,2,4-triazol-3 yl]thio)-1-cyclopropanecarbonitrile]
% Plant Inhibition, Sorghum (herbicide plus safener) (Sorghum): 100%
% Plant Inhibition, Wheat (herbicide plus safener) (Wheat): 75%
% Plant Inhibition, Rice (herbicide plus safener) (Rice; [1]): 95%

CCc1cccc(CC)c1N(COC)C(=O)CCl [Compound H-1, 2-chloro-2',6'-diethyl-N-(methoxymethyl) acetanilide, reference compound]
% Plant Inhibition, Sorghum (herbicide alone) (Sorghum; [2]): 90% and 80% and 85%
% Plant Inhibition, Wheat (herbicide alone) (Wheat; [2]): 90% and 75% and 80%
% Plant Inhibition, Rice (herbicide alone) (Rice; H-1 (alachlor) 2.2 kg/ha alone): 90%

Cn1ccnc1SC1(C#N)CC1 [Compound 4, 1-[(1-methyl-1H--imidazol-2-yl)thio]-1-cyclopropanecarbonitrile]
% Plant Inhibition, Sorghum (herbicide plus safener) (Sorghum): 20%
% Plant Inhibition, Wheat (herbicide plus safener) (Wheat): 100%
% Plant Inhibition, Rice (herbicide plus safener) (Rice; [1]): 95%

Cc1ccnc(SC2(C#N)CC2)n1 [Compound 3, 1-[(4-methyl-2-pyrimidinyl)thio]-1-cyclopropanecarbonitrile]
% Plant Inhibition, Sorghum (herbicide plus safener) (Sorghum): 95%
% Plant Inhibition, Wheat (herbicide plus safener) (Wheat): 90%
% Plant Inhibition, Rice (herbicide plus safener) (Rice; [1]): 40%

CCCCOCN(C(=O)CCl)c1c(CC)cccc1CC [Compound H-2, 2-chloro-2',6'-diethyl-N-(butoxymethyl) acetanilide, reference compound]
% Plant Inhibition, Rice (herbicide alone) (Rice; H-2 (butachlor) 4.5 kg/ha alone): 90% and 75% and 60%

N#CC1(Sc2nc(-c3ccccc3)cs2)CC1 [Compound 2, 1-[(4-phenyl-2-thiazolyl)thio]-1-cyclopropanecarbonitrile]
% Plant Inhibition, Sorghum (herbicide plus safener) (Sorghum): 45%
% Plant Inhibition, Rice (herbicide plus safener) (Rice; H-1 (alachlor) 2.2 kg/ha plus safener 9.0 kg/ha): 95%
% Plant Inhibition, Rice (herbicide plus safener) (Rice; [1]): 90%
